Test results: patent publication US20250073248A1, “BIORESORBABLE CATIONIC STEROIDAL ANTIMICROBIAL COMPOUNDS WITH GLYCERIDE LINKAGES” (BRIGHAM YOUNG UNIVERSITY, priority 2023, published 2025)
Values after ≈ are worked out from the molar mass of the structure shown.

Legend:
[1] = tested on: methicillin-resistant Staphylococcus aureus (MRSA); experiment: MIC and MBC, broth microdilution, MRSA (Table 1); format: cell-based; conditions: Staphylococcus aureus
Text: (§1) To investigate the antimicrobial impact of structural variance in the novel bioresorbable CSA compounds disclosed herein,Pseudomonas aeruginosa 01 (PA01), methicillin-resistant Staphylococcus aureus (MRSA), and Candida albicans (CA) were selected, representing Gram-negative bacterial, Gram-positive bacterial, and fungal pathogens of high or critical priority on the world health organization's priority lists for bacteria and fungi. Earlier applications of CSA compounds have focused on preventing medical device infections, and all three strains are commonly found in colonized implants, making efficacy against these pathogens an important indicator of future applicability.
(§2) All compounds were screened against these pathogens to determine their minimum inhibitory concentration (MIC), minimum bactericidal concentration (MBC), and minimum fungicidal concentration (MFC) using a broth microdilution method. […] Of these three, only CSA-4110 was similarly active against PA01and CA, inhibiting growth at 8 μg/mL.

[2] = tested on: Pseudomonas aeruginosa 01 (PA01); experiment: MIC and MBC, broth microdilution, PA01 (Table 1); format: cell-based; conditions: Pseudomonas aeruginosa
Text: as §1, §2

P. mirabilis ATCC 29906 = experiment: MIC/MBC of CSA-4110, Gram negative bacteria (Table 3); format: cell-based; conditions: Proteus mirabilis, ATCC29906
Experimental: as §2
(§3) CSA-4110 was evaluated further against a broader range of bacterial and fungal strains. Acinetobacter baumannii and several isolates of Staphylococcus aureus, Klebsiella pneumoniae, and Candida auris were selected, further broadening the coverage of high and critical priority pathogens. Streptococcus uberis, Staphylococcus pseudintermedius, Proteus mirabilis, and Escherichia coli were also screened to obtain a more complete efficacy profile. […] For comparison, previous work established the MICs of CSA-131 against strains of Staphylococcus aureus, Pseudomonas aeruginosa, and Candida albicans at 0.5-2 μg/mL
PM is a Gram-negative organism which is occasionally found in urinary tract infections in individuals with functional or anatomical anomalies. It is often noted for its ability to modulate its susceptibility to cationic biocides primarily through modifications to its efflux system and the structure of lipopolysaccharide, a negatively charged endotoxin located in the outer membrane. This can provide insight into the mechanism-of-action for CSA-4110. […]

A. baumannii ATCC 19606 = experiment: as above; format: cell-based; conditions: Acinetobacter baumannii, ATCC19606
Experimental: as §2, §3

E. coli ATCC 25922 = experiment: as above; format: cell-based; conditions: Escherichia coli, ATCC25922
Experimental: as §2, §3

K. pneumoniae ARLG 1360 = experiment: as above; format: cell-based; conditions: Klebsiella pneumoniae, ARLG1360
Experimental: as §2, §3

K. pneumoniae ATCC 13883 = experiment: as above; format: cell-based; conditions: Klebsiella pneumoniae, ATCC13883
Experimental: as §2, §3

[3] = tested on: K. pneumoniae ATCC BAA-1706; experiment: as above; format: cell-based; conditions: Klebsiella pneumoniae, ATCCBAA1706
Experimental: as §2, §3

[4] = tested on: P. aeruginosa 01 ATCC 47085; experiment: as above; format: cell-based; conditions: Pseudomonas aeruginosa, ATCC47085
Experimental: as §2, §3

P. aeruginosa ATCC 27853 = experiment: as above; format: cell-based; conditions: Pseudomonas aeruginosa, ATCC27853
Experimental: as §2, §3

C. albicans ATCC 90028 = experiment: MIC/MFC of CSA-4110, fungi (Table 4); format: cell-based; conditions: Candida albicans, ATCC90028
Experimental: as §2, §3

[5] = tested on: broader range of bacterial and fungal strains; experiment: CSA-4110 against a broader range of bacterial and fungal strains (summary of Tables 2-4); format: cell-based
Experimental: as §2, §3

[6] = tested on: methicillin-resistant Staphylococcus aureus (MRSA); experiment: Example 1 MIC/MBC (FIG. 1, FIG. 2), MRSA; format: cell-based
Experimental: (§4) The antimicrobial activities of CSA-4108, CSA-4110, CSA-4112, and CSA-4114 were determined relative to methicillin-resistant Staphylococcus aureus (MRSA), Pseudomonas aeruginosa (Pa), and Candida albicans 90028. The minimum inhibitory concentration (MIC) for CSA-4108, CSA-4110, CSA-4112, and CSA-4114 relative to the foregoing microbes is graphically reported in FIG. 1. The minimum bactericidal concentration (MBC) and minimum fungicidal concentration […] for CSA-4108, CSA-4110, CSA-4112, and CSA-4114 relative to the foregoing microbes are graphically reported in FIG. 2.

[7] = tested on: Pseudomonas aeruginosa (Pa); experiment: Example 1 MIC/MBC (FIG. 1, FIG. 2), Pa; format: cell-based
Experimental: as §4

lipase = experiment: Stability (hydrolysis) in the presence of lipase, HPLC; format: in vitro ADME
Experimental: The stability, more particularly the rate of hydrolysis in water, of CSA-4110 was tested at various pH values or when exposed to lipase.
To measure the stability of CSA-4110 under various conditions (pH and presence of lipase), monitored degradation over time by HPLC. To enable UV/visible detection, CSA-4110 required derivatization with a chromophore. A precolumn derivatization method was adapted using Fmoc-Cl. This method also required CSA-131 as an internal standard to eliminate errors due to volumetric variations.
With a reliable quantitative analysis method in hand, the optimal storage conditions were determined for CSA-4110 in solution and how quickly CSA-4110 degrades when exposed to mammalian lipases and varied pH. Reference is again made to FIGS. 3A-3D.

[8] = Critical micelle concentration, orange OT dye solubilization; format: physicochemical; conditions: aqueous solution with orange OT dye, water; FIG. 4; read-out: critical micelle concentration (CMC), solubilization of orange OT
Experimental: Previous studies have shown membrane disruption and permeabilization to be the mechanism of action of other CSA compounds. The critical micelle concentration (CMC) of CSA-4110 was measured to determine if aggregation was necessary for antimicrobial activity (see FIG. 4). This assay involves using a hydrophobic dye (orange OT) that is insoluble in water to measure what concentration of CSA-4110 is required to solubilize orange OT. Entry of orange OT into solution is due to micelle formation by CSA-4110 and can be quantified with a spectrophotometer.

[9] = all strains of Tables 2-4 except Proteus mirabilis

`CCCCCCCCCC(=O)OCC(O)COC(=O)CC[C@@H](C)[C@H]1CC[C@H]2[C@@H]3[C@H](OC(=O)CCN)C[C@@H]4C[C@H](OC(=O)CCN)CC[C@]4(C)[C@H]3C[C@H](OC(=O)CCN)[C@]12C` (some centres unmarked) [CSA-4110] showed an MBC ([1]; MBC, value in parentheses, kills at least 99.9%) of 8 µg/mL (≈ 9.41 µM), an MIC ([1]; first value of cell) of at most 8 µg/mL and an MBC ([2]; MBC, value in parentheses) of 32 µg/mL (≈ 37.6 µM). For the same molecule, the MIC ([2]; first value of cell) was 8 µg/mL (≈ 9.41 µM), the MBC (P. mirabilis ATCC 29906) was 64 µg/mL and the MIC (P. mirabilis ATCC 29906) was 16 µg/mL. The MBC (A. baumannii ATCC 19606) was 4 µg/mL, the MIC (A. baumannii ATCC 19606) was 4 µg/mL and the MBC (E. coli ATCC 25922) was 4 µg/mL. It also gave an MIC (E. coli ATCC 25922) of 4 µg/mL, an MBC (K. pneumoniae ARLG 1360) of 8 µg/mL and an MIC (K. pneumoniae ARLG 1360) of 8 µg/mL. For the same molecule, the MBC (K. pneumoniae ATCC 13883) was 2 µg/mL, the MIC (K. pneumoniae ATCC 13883) was 2 µg/mL and the MBC [3] was 4 µg/mL. The MIC [3] was 4 µg/mL, the MBC [4] was 8 µg/mL and the MIC [4] was 4 µg/mL. It also gave an MBC (P. aeruginosa ATCC 27853) of 8 µg/mL, an MIC (P. aeruginosa ATCC 27853) of 4 µg/mL and an MBC (C. albicans ATCC 90028) of 16 µg/mL (≈ 18.8 µM). For the same molecule, the MIC (C. albicans ATCC 90028) was 4 µg/mL (≈ 4.71 µM), the “MBCs/MFCs, range over the strains” value [5, 9] was 2 to 16 µg/mL and the “MICs, range over the strains” value [5, 9] was 2 to 8 µg/mL. For the same molecule, the “MICs, range as restated in the CMC paragraph” value ([5]; compared with CMC) was 2 to 8 g/mL, the “MBC (FIG. 2), ranking in words” value [6] was “lowest MBC and MFC” and the “MIC (FIG. 1), ranking in words” value [6] was “lowest MIC”. The “MBC (FIG. 2), ranking in words” value ([7]; PA) was “lowest MBC and MFC”, the “MIC (FIG. 1), ranking in words” value ([7]; Pa) was “lowest MIC” and the “hydrolysis in aqueous solution containing lipase” value (lipase; FIG. 3D) was “hydrolyzed most rapidly”. It also gave a half-life (lipase; mammalian (lipase; species not named), lipase in aqueous solution, dissolved with a lipase at room temperature at pH=6.9) of 1 h and a critical micelle concentration [8] of about 1000 µg/mL.
